How the values were obtained:
keratinocytes = assay: Cytotoxicity, MTT cell viability on keratinocytes; format: cell-based; conditions: for Percentage cell viability, Mean: MTT
Procedure: (§1) Study of cell viability following application of the hydroxytyrosol dihydrosinapate of the invention of formula (IIa) to keratinocytes or melanocytes.
(§2) The cells (keratinocytes or melanocytes) were cultured in a 96-well plate at 37° C. under 5% CO2 in an appropriate medium until confluence. The medium was withdrawn and then an amount of 200 μL of a 0.5 mg/mL MTT solution was added. The plates were then incubated at 37° C. for 3 hours, after which the MTT solution was withdrawn from each well and replaced with DMSO. The plates were agitated for 15 minutes, and the optical density was measured at 550 nm.
(§3) The negative cytotoxicity control is PBS. The positive cytotoxicity control is 0.25% SDS. 0.1% DMSO was used as control.

[1] = test system: keratinocytes from the A431 line; assay: Antiinflammatory activity: release of E2 prostaglandins by UVB-irradiated keratinocytes (ELISA); format: cell-based; conditions: A431 keratinocytes, 30 μM, UV B 30 mJ/cm2, untreated irradiated control = 100%
Procedure: Study of the antiinflammatory activity of the hydroxytyrosol dihydrosinapate of the invention of formula (IIa), by measurement of the inhibition of release of E2 prostaglandins by keratinocytes under the effect of UVB.
The keratinocytes from the A431 line are cultured in an appropriate medium at 37° C. for 72 hours under 5% CO2. The culture medium is then withdrawn and replaced with the medium containing the products under test, and also the positive and negative controls. The cells are subsequently irradiated with UV B at 30 mJ/cm2. The cells are incubated for an extra 24 hours at 37° C. under 5% CO2. The cell supernatants are subsequently recovered, and the E2 prostaglandins (PGE2) released are quantified by an ELISA assay.
An amount of 100 μL of each sample, control or PGE2 standard is transferred to the wells of a 96-well plate, which are coated with antibodies directed against rat immunoglobulin G (IgG). Then an amount of 25 μL of PGE2-peroxidase conjugate is added to each well, followed by an amount of 25 μL of anti-PGE2 monoclonal antibody. The plate is incubated at 4° C. overnight. The wells are then rinsed and an amount of 100 μL of peroxidase substrate is added. After 15 minutes of incubation at ambient temperature, the optical density is read off at 450 nm. The amount of prostaglandin E2 released after irradiation is deduced from a commercial PGE2 standard range from 0 to 400 pg/mL of PGE2.
The negative control, represented by the cells which were not treated with samples and which underwent irradiation by UV B, gave rise to 100% release of PGE2. The positive experimental control is aspirin, which at 0.03% gave rise to 5%+/−2% release of PGE2.

melanocytes = assay: Cytotoxicity, MTT cell viability on melanocytes; format: cell-based; conditions: for Percentage cell viability, Mean: MTT
Procedure: as §1, §2, §3

[2] = DPPH radical scavenger test (acellular); conditions: 30 minutes
Text: Study of the radical scavenger activity of the hydroxytyrosol dihydrosinapate of the invention of formula (IIa) and of the prior-art ferulic acid derivative in an acellular in vitro model, using DPPH.
1,1-Diphenyl-2-picrylhydrazyl, owing to its paramagnetic structure, is able to accept an electron or a hydrogen radical in order to become a stable diamagnetic molecule.
The addition of a compound which provides electrons gives rise to decoloring of the 1,1-diphenyl-2-picrylhydrazyl in a manner proportional to the number of electrons accepted by the radical, and this decoloration can be monitored by measuring the absorbance at 530 nm (OD530).
[…] At the end of the incubation, the radical scavenger activity of the compound under test is evaluated by measuring the absorbance of the solution at 530 nm.
The results are presented as % inhibition of the DPPH radical, in Table 3a).
The radical scavenger activity of the test product is calculated as a percentage, according to the following formula:
100−((OD530 in the presence of the compound under test/OD530 in the absence of compound)×100)

[3] = test system: melanocytes of murine line B16; assay: Inhibition of melanin production in B16 melanocytes stimulated with an α-MSH derivative; format: cell-based; conditions: Mus musculus, B16 cells, 72 hours, read-out: % inhibition of melanin +/− standard deviation
Procedure: Determination of the percentage inhibition of melanin production by the hydroxytyrosol dihydrosinapate of the invention of formula (IIa) or the ferulic acid derivative of the prior art, by quantitative analysis of the total melanin synthesized by melanocytes of murine line B16 following application of the compound under test.
Melanocytes (B16 cells) are cultured for 24 hours in a 96-well plate in an appropriate medium. […] After 72 hours of incubation, the culture medium is withdrawn, and total melanin is quantified by measuring the absorbance at 405 nm against a standard range of synthetic melanin from 0.78 to 100 μg/mL.
The results are expressed as percentage inhibition of melanin production relative to the negative control, and are presented in Table 1.
The inhibitory activity on melanin production of the product tested is calculated as a percentage according to the following formula:
% inhibition=[(mean stimulated control−mean basal control)−(sample value−mean basal control)]/(mean stimulated control−mean basal control)×100
where: • Mean stimulated control: mean of the values obtained with a medium supplemented with an alpha-MSH derivative • Sample value: value obtained with the compound under test • Mean basal control: Mean of the values obtained with a medium not supplemented with an alpha-MSH derivative

[4] = 10^−6, 10^−5 and 10^−4 M, tolerated threshold 75% viability

In the case of `COc1cc(CCC(=O)OCCc2ccc(O)c(O)c2)cc(OC)c1O` [Hydroxytyrosol dihydrosinapate (IIa), hydroxytyrosol dihydrosinapate], the “Percentage cell viability, Mean” value (keratinocytes; 1 μM) is reported as 105.8%, the “Percentage cell viability, Mean” value (keratinocytes; 10 μM) is reported as 115.2% and the “Percentage cell viability, Mean” value (keratinocytes; 100 μM) is reported as 75.7%. The “cytotoxicity (in words)” value (keratinocytes; [4]) was “not cytotoxic”, the “% release of PGE2 after irradiation” value [1] was 22% and the “Percentage cell viability, Mean” value (melanocytes; 1 μM) was 109.67%. For the same compound, the “Percentage cell viability, Mean” value (melanocytes; 10 μM) was 107.53%, the “Percentage cell viability, Mean” value (melanocytes; 100 μM) was 111.30% and the “cytotoxicity (in words)” value (melanocytes; [4]) was “not cytotoxic”. For the same compound, the “% inhibition of the DPPH radical” value ([2]; 1 μM) was 10.7 +/− 0.59%, the “% inhibition of the DPPH radical” value ([2]; 5 μM) was 59.68 +/− 0.89% and the “% inhibition of the DPPH radical” value ([2]; 10 μM) was 82.01 +/− 1.05%. The “% inhibition of the DPPH radical” value ([2]; 30 μM) was 86.68 +/− 0.44%, the “% inhibition of the DPPH radical” value ([2]; 50 μM) was 88.78 +/− 0.49% and the “% inhibition of the DPPH radical” value ([2]; 100 μM) was 88.28 +/− 0.56%. The “% inhibition of the DPPH radical” value ([2]; 1000 μM) was 89.14 +/− 0.40%, the inhibition at 10 µM ([3]; 10 μM) was 75% and the inhibition at 30 µM ([3]; 30 μM) was 106%. The inhibition at 50 µM ([3]; 50 μM) was 115%.

— US20150342847A1, “NOVEL DERIVATIVES OF SINAPINIC ACID AND THE COSMETIC OR PHARMACEUTICAL USES THEREOF” (BASF Beauty Care Solutions France SAS, priority 2012, published 2015)
